Each structure is given as a SMILES string.

FGFR3 enzyme, sequence (P22607 23-806): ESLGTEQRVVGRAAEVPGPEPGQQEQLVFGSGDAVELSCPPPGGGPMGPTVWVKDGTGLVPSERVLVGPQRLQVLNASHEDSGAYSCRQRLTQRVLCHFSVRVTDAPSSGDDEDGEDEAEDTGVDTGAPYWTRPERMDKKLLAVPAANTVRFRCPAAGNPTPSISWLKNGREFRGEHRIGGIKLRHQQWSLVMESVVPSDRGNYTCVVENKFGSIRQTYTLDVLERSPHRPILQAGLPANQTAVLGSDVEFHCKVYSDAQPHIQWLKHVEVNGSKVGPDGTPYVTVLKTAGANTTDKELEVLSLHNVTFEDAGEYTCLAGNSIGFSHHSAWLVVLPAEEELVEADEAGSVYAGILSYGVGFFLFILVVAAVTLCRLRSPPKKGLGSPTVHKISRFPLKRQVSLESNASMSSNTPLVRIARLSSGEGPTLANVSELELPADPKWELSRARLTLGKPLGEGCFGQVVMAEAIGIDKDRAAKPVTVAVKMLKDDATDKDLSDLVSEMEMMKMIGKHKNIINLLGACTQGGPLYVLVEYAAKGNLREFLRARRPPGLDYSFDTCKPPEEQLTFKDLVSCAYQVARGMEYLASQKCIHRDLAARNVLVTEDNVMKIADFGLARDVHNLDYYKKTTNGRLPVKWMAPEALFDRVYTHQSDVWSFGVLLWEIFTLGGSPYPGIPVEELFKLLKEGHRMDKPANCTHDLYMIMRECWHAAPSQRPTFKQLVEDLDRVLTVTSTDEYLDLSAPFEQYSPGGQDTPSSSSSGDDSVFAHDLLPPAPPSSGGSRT

For this test, the target named is FGFR3 enzyme (Homo sapiens (Human), UniProt P22607). Put plainly: FGFR Enzymatic Assay (peptide phosphorylation, FRET), FGFR3. The class given is biochemical. The following applies: IC50 ratio showing FGFR3 selectivity; pre-incubated for 4 hours. The procedure:
The inhibitor potency of the exemplified compounds was measured in an enzyme assay that measures peptide phosphorylation using FRET measurements to detect product formation. Inhibitors were serially diluted in DMSO and a volume of 0.5 μL was transferred to the wells of a 384-well plate.
GraphPad prism3 was used to analyze the data.
Take `COc1cc(OC)c(F)c(N2Cc3cnc(-c4cn(C)nc4C)cc3N(c3ccc(C(=O)N(C)C)cc3)C2=O)c1F` [Example 113, 4-(3-(2,6-difluoro-3,5-dimethoxyphenyl)-7-(1,3-dimethyl-1H-pyrazol-4-yl)-2-oxo-3,4-dihydropyrido[4,3-d]pyrimidin-1(2H)-yl)-N,N-dimethylbenzamide]: the FGFR1/FGFR3 is recorded as greater than 3 and the FGFR4/FGFR3 is listed as greater than 5.

Consider `CCN1C(=O)N(c2c(F)c(OC)cc(OC)c2F)Cc2cnc(-c3ccc(C(=O)NC(C)C)nc3)cc21` [Example 178, 5-(3-(2,6-difluoro-3,5-dimethoxyphenyl)-1-ethyl-2-oxo-1,2,3,4-tetrahydropyrido[4,3-d]pyrimidin-7-yl)-N-isopropylpicolinamide], for which the FGFR1/FGFR3 is on record as greater than 5 and the FGFR4/FGFR3 is listed as greater than 5.

Consider `CCN1C(=O)N(c2c(F)c(OC)cc(OC)c2F)Cc2cnc(-c3ccc(C(N)=O)nc3)cc21` [Example 184, 5-(3-(2,6-difluoro-3,5-dimethoxyphenyl)-1-ethyl-2-oxo-1,2,3,4-tetrahydropyrido[4,3-d]pyrimidin-7-yl)picolinamide], for which the FGFR1/FGFR3 was greater than 5 and the FGFR4/FGFR3 is on record as greater than 5.

For the molecule `COc1cc(OC)c(F)c(N2Cc3cnc(-c4cn(CCN5CCOCC5)nc4C)cc3C3(CC3)C2=O)c1F` [Example 52, 2′-(2,6-difluoro-3,5-dimethoxyphenyl)-6′-(3-methyl-1-(2-morpholinoethyl)-1H-pyrazol-4-yl)-1′H-spiro[cyclopropane-1,4′-[2,7]naphthyridin]-3′(2′H)-one], the FGFR1/FGFR3 was greater than 10 and the FGFR4/FGFR3 is greater than 1.

Turning to `COc1cnc(N2C(=O)N(c3c(F)c(OC)cc(OC)c3F)Cc3cnc(-c4cn(C)nc4C)cc32)cn1` [Example 112, 3-(2,6-difluoro-3,5-dimethoxyphenyl)-7-(1,3-dimethyl-1H-pyrazol-4-yl)-1-(5-methoxypyrazin-2-yl)-3,4-dihydropyrido[4,3-d]pyrimidin-2(1H)-one], the FGFR1/FGFR3 is given as greater than 3 and the FGFR4/FGFR3 is given as greater than 5.

For the molecule `COc1cc(OC)c(F)c(N2Cc3cnc(-c4cn(C)nc4C)cc3N(C3(C#N)CC3)C2=O)c1F` [Example 91, 1-(3-(2,6-difluoro-3,5-dimethoxyphenyl)-7-(1,3-dimethyl-1H-pyrazol-4-yl)-2-oxo-3,4-dihydropyrido[4,3-d]pyrimidin-1(2H)-yl)cyclopropanecarbonitrile], the FGFR1/FGFR3 is given as greater than 5 and the FGFR4/FGFR3 is listed as greater than 5.

In the case of `COc1cc(OC)c(F)c(N2Cc3cnc(-c4cn(C)nc4C)cc3N(C3CCOC3)C2=O)c1F` (stereo not shown) [Example 33, 3-(2,6-difluoro-3,5-dimethoxyphenyl)-7-(1,3-dimethyl-1H-pyrazol-4-yl)-1-(tetrahydrofuran-3-yl)-3,4-dihydropyrido[4,3-d]pyrimidin-2(1H)-one], the FGFR1/FGFR3 is listed as greater than 5 and the FGFR4/FGFR3 is reported as greater than 5.

Turning to `COc1cc(OC)c(F)c(N2Cc3cnc(-c4cn(C)nc4C)cc3N(Cc3cc(C(C)C)on3)C2=O)c1F` [Example 93, 3-(2,6-difluoro-3,5-dimethoxyphenyl)-7-(1,3-dimethyl-1H-pyrazol-4-yl)-1-((5-isopropylisoxazol-3-yl)methyl)-3,4-dihydropyrido[4,3-d]pyrimidin-2(1H)-one], the FGFR1/FGFR3 is greater than 5 and the FGFR4/FGFR3 was greater than 5.

In the case of `COc1cc(OC)c(F)c(N2Cc3cnc(-c4cn(C)nc4C)cc3N(c3ccc(C#N)cn3)C2=O)c1F` [Example 79, 6-(3-(2,6-difluoro-3,5-dimethoxyphenyl)-7-(1,3-dimethyl-1H-pyrazol-4-yl)-2-oxo-3,4-dihydropyrido[4,3-d]pyrimidin-1(2H)-yl)nicotinonitrile], the FGFR1/FGFR3 was greater than 5 and the FGFR4/FGFR3 is reported as greater than 3.

`CCc1nnc(CN2C(=O)N(c3c(F)c(OC)cc(OC)c3F)Cc3cnc(-c4cn(C)nc4C)cc32)o1` [Example 67, 3-(2,6-difluoro-3,5-dimethoxyphenyl)-7-(1,3-dimethyl-1H-pyrazol-4-yl)-1-((5-ethyl-1,3,4-oxadiazol-2-yl)methyl)-3,4-dihydropyrido[4,3-d]pyrimidin-2(1H)-one]: the FGFR1/FGFR3 is given as greater than 5 and the FGFR4/FGFR3 is recorded as greater than 10.

As to `COc1cc(OC)c(F)c(N2Cc3cnc(-c4cnn(CC5CCCS(=O)(=O)N5)c4)cc3C3(CC3)C2=O)c1F` (stereo not shown) [Example 162, 2′-(2,6-difluoro-3,5-dimethoxyphenyl)-6′-{1-[(1,1-dioxido-1,2-thiazinan-3-yl)methyl]-1H-pyrazol-4-yl}-1′H-spiro[cyclopropane-1,4′-[2,7]naphthyridin]-3′(2′H)-one], the FGFR1/FGFR3 was greater than 5 and the FGFR4/FGFR3 is greater than 1.

Regarding `COc1cc(OC)c(F)c(N2Cc3cnc(-c4ccc(C5(C#N)CCC5)nc4)cc3N(c3ccncn3)C2=O)c1F` [Example 135, 1-(5-(3-(2,6-difluoro-3,5-dimethoxyphenyl)-2-oxo-1-(pyrimidin-4-yl)-1,2,3,4-tetrahydropyrido[4,3-d]pyrimidin-7-yl)pyridin-2-yl)cyclobutanecarbonitrile], the FGFR1/FGFR3 is on record as greater than 5 and the FGFR4/FGFR3 was greater than 10.

On to `COc1cc(OC)c(F)c(N2Cc3cnc(-c4cn(C)nc4C)cc3N(Cc3cnccn3)C2=O)c1F` [Example 85, 3-(2,6-difluoro-3,5-dimethoxyphenyl)-7-(1,3-dimethyl-1H-pyrazol-4-yl)-1-(pyrazin-2-ylmethyl)-3,4-dihydropyrido[4,3-d]pyrimidin-2(1H)-one], for which the FGFR1/FGFR3 is greater than 5 and the FGFR4/FGFR3 is given as greater than 10.

On to `COc1cc(OC)c(F)c(N2Cc3cnc(-c4cn(C)nc4C)cc3N(c3ccc4nc(C)oc4c3)C2=O)c1F` [Example 75, 3-(2,6-difluoro-3,5-dimethoxyphenyl)-7-(1,3-dimethyl-1H-pyrazol-4-yl)-1-(2-methylbenzo[d]oxazol-6-yl)-3,4-dihydropyrido[4,3-d]pyrimidin-2(1H)-one], for which the FGFR1/FGFR3 is greater than 5 and the FGFR4/FGFR3 is greater than 3.

Turning to `COc1cc(OC)c(F)c(N2Cc3cnc(-c4cn(C)nc4C)cc3N(C3CCCC3)C2=O)c1F` [Example 32, 1-cyclopentyl-3-(2,6-difluoro-3,5-dimethoxyphenyl)-7-(1,3-dimethyl-1H-pyrazol-4-yl)-3,4-dihydropyrido[4,3-d]pyrimidin-2(1H)-one], the FGFR1/FGFR3 is greater than 1 and the FGFR4/FGFR3 is reported as greater than 5.

Regarding `CCN1C(=O)N(c2c(F)c(OC)cc(OC)c2F)Cc2cnc(-c3cnn(C)c3)cc21` [Example 169, 3-(2,6-difluoro-3,5-dimethoxyphenyl)-1-ethyl-7-(1-methyl-1H-pyrazol-4-yl)-3,4-dihydropyrido[4,3-d]pyrimidin-2(1H)-one], the FGFR1/FGFR3 is listed as greater than 3 and the FGFR4/FGFR3 is listed as greater than 5.

With `CCN1C(=O)N(c2c(F)c(OC)cc(OC)c2F)Cc2cnc(-c3cccnc3)cc21` [Example 23, 3-(2,6-difluoro-3,5-dimethoxyphenyl)-1-ethyl-7-(pyridin-3-yl)-3,4-dihydropyrido[4,3-d]pyrimidin-2(1H)-one], the FGFR1/FGFR3 is greater than 5.

As to `COc1cc(OC)c(F)c(N2Cc3cnc(-c4cn(C)nc4C)cc3N(Cc3ccc(C#N)nc3)C2=O)c1F` [Example 74, 5-((3-(2,6-difluoro-3,5-dimethoxyphenyl)-7-(1,3-dimethyl-1H-pyrazol-4-yl)-2-oxo-3,4-dihydropyrido[4,3-d]pyrimidin-1(2H)-yl)methyl)picolinonitrile], the FGFR1/FGFR3 is reported as greater than 5 and the FGFR4/FGFR3 is greater than 5.

On to `CCN1C(=O)N(c2c(F)c(OC)cc(OC)c2F)Cc2cnc(-c3ccc(C4(C#N)CC4)cc3)cc21` [Example 183, 1-(4-(3-(2,6-difluoro-3,5-dimethoxyphenyl)-1-ethyl-2-oxo-1,2,3,4-tetrahydropyrido[4,3-d]pyrimidin-7-yl)phenyl)cyclopropanecarbonitrile], for which the FGFR1/FGFR3 is recorded as greater than 3 and the FGFR4/FGFR3 is reported as greater than 10.

Take `COc1cc(OC)c(F)c(N2Cc3cnc(-c4ccc(C#N)nc4)cc3C3(CC3)C2=O)c1F` [Example 20, 5-(2′-(2,6-difluoro-3,5-dimethoxyphenyl)-3′-oxo-2′,3′-dihydro-1′H-spiro[cyclopropane-1,4′-[2,7]naphthyridine]-6′-yl)picolinonitrile]: the FGFR1/FGFR3 was greater than 5.

Consider `COc1cc(OC)c(F)c(N2Cc3cnc(-c4cn(C)nc4C)cc3N(c3ccc4ccncc4c3)C2=O)c1F` [Example 63, 3-(2,6-difluoro-3,5-dimethoxyphenyl)-7-(1,3-dimethyl-1H-pyrazol-4-yl)-1-(isoquinolin-7-yl)-3,4-dihydropyrido[4,3-d]pyrimidin-2(1H)-one], for which the FGFR1/FGFR3 is on record as greater than 10 and the FGFR4/FGFR3 is reported as greater than 5.

As for `COc1cc(OC)c(F)c(N2Cc3cnc(-c4cn(C)nc4C)cc3N(c3ccnnc3)C2=O)c1F` [Example 57, 3-(2,6-difluoro-3,5-dimethoxyphenyl)-7-(1,3-dimethyl-1H-pyrazol-4-yl)-1-(pyridazin-4-yl)-3,4-dihydropyrido[4,3-d]pyrimidin-2(1H)-one], the FGFR1/FGFR3 is reported as greater than 10 and the FGFR4/FGFR3 is greater than 10.

For `CCN1C(=O)N(c2c(F)c(OC)cc(OC)c2F)Cc2cnc(-c3ccc(C4(C#N)CCC4)cc3)cc21` [Example 181, 1-(4-(3-(2,6-difluoro-3,5-dimethoxyphenyl)-1-ethyl-2-oxo-1,2,3,4-tetrahydropyrido[4,3-d]pyrimidin-7-yl)phenyl)cyclobutanecarbonitrile], the FGFR1/FGFR3 is reported as greater than 5 and the FGFR4/FGFR3 is greater than 10.

Regarding `COc1cc(OC)c(F)c(N2Cc3cnc(-c4cn(C)nc4C)cc3N(c3ccn(C)n3)C2=O)c1F` [Example 100, 3-(2,6-difluoro-3,5-dimethoxyphenyl)-7-(1,3-dimethyl-1H-pyrazol-4-yl)-1-(1-methyl-1H-pyrazol-3-yl)-3,4-dihydropyrido[4,3-d]pyrimidin-2(1H)-one], the FGFR1/FGFR3 is on record as greater than 5 and the FGFR4/FGFR3 is greater than 5.

The record behind these values is patent publication US10251892B2, “Bicyclic heterocycles as FGFR4 inhibitors” (Incyte Corporation, priority 2015, dated 2019).
